Measured values published in patent US20210317140A1, “Heterocyclic Compounds and Methods of Use” (MEDIVATION TECHNOLOGIES, INC, priority 2013, published 2021).

Columns and labels:
[1] = target: T1, PI3Kβ (Homo sapiens, UniProt P42338); test: PI3Kβ isoform profiling (PI3Kδ protocol); type: biochemical; details: for PI3Kβ @ 0.3 μM (% Inh): 0.3 μM compound; for IC50: 10 dose IC50
T1 construct: purchased Reaction Biology Corporation
From the text: PI3Kδ assay: The PIP3 product is detected by displacement of biotin-PIP3 from an energy transfer complex consisting of Europium labeled anti-GST monoclonal antibody, a GST-tagged pleckstrin homology (PH) domain, biotinylated PIP3 and Streptavidin-Allophycocyanin (APC). Excitation of Europium in the complex results in an energy transfer to the APC and a fluorescent emission at 665 nm. The PIP3 product formed by PI 3-Kinase(h) activity displaces biotin-PIP3 from the complex resulting in a loss of energy transfer and thus a decrease in signal. This is a 3-step reaction: First, the kinase reaction with PIP2 substrate is carried out in the presence of ATP (10 μM), and the reaction is quenched with stop Solution, and then finally detect by adding Detection Mixture followed by incubation (10 min). Reaction procedure: 1) Prepare substrate in freshly prepared Reaction Buffer. 2) Deliver kinase into the substrate solution and gently mix. 3) Deliver compounds in 100% DMSO (1 μM) into the kinase reaction mixture by Acoustic technology (Echo550; nanoliter range), incubate for 10 min at RT. 4) Deliver ATP into the reaction mixture to initiate the reaction. 5) Incubate for 30 min at 30° C. 6) Quench the reaction with Stop Solution. 7) Add Detection Mixture, and incubate for overnight. 8) Measure HTRF: Ex=320 nm, ratio of Em=615 nm and Em=665 nm. The emission ratio is converted into μM PIP3 production based on PIP3 standard curves. The nonlinear regression to obtain the standard curve and IC50 values are performed using Graphpad Prism software. Assay Buffer: HEPES 50 mM (pH7.0), NaN3 0.02%, BSA 0.01%, Orthovanadate 0.1 mM, 1% DMSO. Detection buffer: HEPES 10 mM (pH7.0), BSA 0.02%, KF 0.16 M, EDTA 4 mM. Substrate: 10 μM PIP2 substrate (PI(4,5)P2).
Compounds of the invention were profiled in a 10 dose IC50 panel against PI3Kα, PI3Kβ, and PI3Kγ kinases, provided by Reaction Biology Corporation, applied to the PI3Kδ protocol provided in Example B1.

[2] = target: T2, BTK (Homo sapiens, UniProt Q06187); test: BTK kinase assay (HotSpot, 33P ATP); type: biochemical; details: for BTK @ 0.1 μM (% Inh): 0.1 μM compound; for BTK @ 0.1 μM (% Inh) / BTK @ 1 μM (% Inh) / BTK @ 0.01 μM (% Inh): 10 μM ATP; for IC50: 10 dose IC50, 10 μM ATP; for BTK @ 1 μM (% Inh): 1 μM compound; for BTK @ 0.01 μM (% Inh): 0.01 μM compound
T2 construct: purchased Reaction Biology Corporation
Method in brief: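 In 20 mM Hepes (pH 7.5) with 10 mM MgCl2, 1 mM EGTA, 0.1 mM Na3VO4, 2 mM DTT, 0.02% Brij35, 0.02 mg/mL BSA and 1% DMSO, kinase and substrate were exposed to ten compound doses for 15–20 min.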

[3] = system: CD69+B220+ cells; test: B cell activation assay (IgD-stimulated splenocytes, CD69+B220+ cells by FACS); type: cell-based; details: IgD 3 μg/mL, 4 h; for CD69 @ 100 nM (% Inh): 100 nM compound
Method in brief: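 Read-out is percent CD69+ among live B220+ cells by FACS after 4 h stimulation with 3 μg/mL IgD at 37 °C. Before stimulation, splenocytes from one female mouse (10^6 cells/mL) received 100 nM compound for 30 min.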

[4] = target: T3, ITK (Homo sapiens, UniProt Q08881); test: ITK kinase profiling (BTK protocol); type: biochemical; details: for ITK @ 0.3 μM (% Inh): 0.3 μM compound; for IC50: 10 dose IC50
T3 construct: purchased Reaction Biology Corporation
T3 sequence (Q08881 1-620): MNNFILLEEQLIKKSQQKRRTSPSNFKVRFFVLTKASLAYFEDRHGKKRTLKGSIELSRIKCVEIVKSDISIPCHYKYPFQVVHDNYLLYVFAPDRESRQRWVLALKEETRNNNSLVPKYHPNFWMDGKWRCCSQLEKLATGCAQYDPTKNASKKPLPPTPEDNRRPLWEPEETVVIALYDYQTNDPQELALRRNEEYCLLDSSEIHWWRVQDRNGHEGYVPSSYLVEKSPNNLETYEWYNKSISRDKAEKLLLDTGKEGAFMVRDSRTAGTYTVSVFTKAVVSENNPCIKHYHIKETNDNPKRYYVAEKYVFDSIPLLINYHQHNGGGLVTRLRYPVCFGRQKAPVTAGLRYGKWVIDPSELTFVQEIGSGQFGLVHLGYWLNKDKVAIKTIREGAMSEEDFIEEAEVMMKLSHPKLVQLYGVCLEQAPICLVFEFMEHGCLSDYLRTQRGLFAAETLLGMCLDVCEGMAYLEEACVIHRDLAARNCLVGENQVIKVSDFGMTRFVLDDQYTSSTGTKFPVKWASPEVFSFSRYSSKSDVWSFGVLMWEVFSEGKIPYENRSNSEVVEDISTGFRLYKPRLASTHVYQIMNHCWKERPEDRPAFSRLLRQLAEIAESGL
Protocol: BTK assay: In vitro profiling protein kinases was performed using the “HotSpot” assay platform. Briefly, specific kinase/substrate pairs along with required cofactors were prepared in reaction buffer. Compounds were prepared as 10 mM stock solutions in DMSO. Compounds were delivered into the reaction, followed 15-20 minutes later by addition of a mixture of ATP (Sigma, St. Louis Mo.) and ^33P ATP (Perkin Elmer, Waltham Mass.) to a final concentration of 10 μM. […] IC50 values and curve fits were obtained using Prism (GraphPad Software). Buffer Conditions: 20 mM Hepes (pH 7.5), 10 mM MgCl2, 1 mM EGTA, 0.02% Brij35, 0.02 mg/mL BSA, 0.1 mM Na3VO4, 2 mM DTT, 1% DMSO.

T2 sequence (Q06187 whole entry): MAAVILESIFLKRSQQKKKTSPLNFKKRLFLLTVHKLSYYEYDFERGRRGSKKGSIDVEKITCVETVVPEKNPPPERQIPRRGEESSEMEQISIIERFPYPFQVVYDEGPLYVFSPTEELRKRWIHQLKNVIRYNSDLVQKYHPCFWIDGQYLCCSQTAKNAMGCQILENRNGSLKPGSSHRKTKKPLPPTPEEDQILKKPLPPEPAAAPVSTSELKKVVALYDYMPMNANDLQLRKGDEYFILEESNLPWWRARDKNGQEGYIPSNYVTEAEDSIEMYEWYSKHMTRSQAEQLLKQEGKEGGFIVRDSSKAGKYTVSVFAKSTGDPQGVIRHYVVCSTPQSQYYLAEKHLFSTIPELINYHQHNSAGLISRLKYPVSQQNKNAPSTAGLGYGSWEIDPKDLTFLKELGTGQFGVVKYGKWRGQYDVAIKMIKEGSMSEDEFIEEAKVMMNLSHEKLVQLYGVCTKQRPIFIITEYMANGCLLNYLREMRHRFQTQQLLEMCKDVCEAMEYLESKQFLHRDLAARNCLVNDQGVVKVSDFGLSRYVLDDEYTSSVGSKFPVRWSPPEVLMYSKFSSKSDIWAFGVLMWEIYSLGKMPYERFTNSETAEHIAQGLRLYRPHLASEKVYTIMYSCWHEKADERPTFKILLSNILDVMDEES
T1 sequence (P42338 whole entry, canonical isoform): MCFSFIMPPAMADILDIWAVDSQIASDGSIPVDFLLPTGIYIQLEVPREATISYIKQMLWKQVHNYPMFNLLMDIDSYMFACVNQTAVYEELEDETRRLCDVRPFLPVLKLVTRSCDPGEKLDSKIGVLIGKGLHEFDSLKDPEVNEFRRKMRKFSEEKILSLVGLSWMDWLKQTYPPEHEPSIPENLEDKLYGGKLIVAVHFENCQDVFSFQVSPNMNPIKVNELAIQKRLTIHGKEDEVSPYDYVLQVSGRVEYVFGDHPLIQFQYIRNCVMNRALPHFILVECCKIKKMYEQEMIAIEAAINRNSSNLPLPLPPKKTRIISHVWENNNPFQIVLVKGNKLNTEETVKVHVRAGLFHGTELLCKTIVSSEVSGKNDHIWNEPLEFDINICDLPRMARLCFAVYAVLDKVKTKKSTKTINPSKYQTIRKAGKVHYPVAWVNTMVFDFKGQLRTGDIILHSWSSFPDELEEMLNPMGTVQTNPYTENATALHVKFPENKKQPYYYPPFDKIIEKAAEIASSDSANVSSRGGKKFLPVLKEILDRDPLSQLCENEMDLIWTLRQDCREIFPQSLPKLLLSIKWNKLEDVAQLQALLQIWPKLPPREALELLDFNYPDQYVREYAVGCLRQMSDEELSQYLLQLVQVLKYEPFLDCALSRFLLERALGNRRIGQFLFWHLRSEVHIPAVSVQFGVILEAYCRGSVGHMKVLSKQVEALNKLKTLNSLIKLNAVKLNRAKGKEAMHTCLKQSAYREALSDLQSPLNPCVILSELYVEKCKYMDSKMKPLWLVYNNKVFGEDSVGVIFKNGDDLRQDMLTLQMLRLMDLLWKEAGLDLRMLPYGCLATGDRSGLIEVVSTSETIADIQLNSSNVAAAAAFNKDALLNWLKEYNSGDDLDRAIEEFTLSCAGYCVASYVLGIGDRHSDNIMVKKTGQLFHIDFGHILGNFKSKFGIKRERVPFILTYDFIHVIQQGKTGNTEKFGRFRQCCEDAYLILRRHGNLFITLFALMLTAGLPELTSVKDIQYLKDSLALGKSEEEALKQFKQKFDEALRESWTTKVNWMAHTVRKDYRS
T1 sequence (P27986 whole entry partner, canonical isoform): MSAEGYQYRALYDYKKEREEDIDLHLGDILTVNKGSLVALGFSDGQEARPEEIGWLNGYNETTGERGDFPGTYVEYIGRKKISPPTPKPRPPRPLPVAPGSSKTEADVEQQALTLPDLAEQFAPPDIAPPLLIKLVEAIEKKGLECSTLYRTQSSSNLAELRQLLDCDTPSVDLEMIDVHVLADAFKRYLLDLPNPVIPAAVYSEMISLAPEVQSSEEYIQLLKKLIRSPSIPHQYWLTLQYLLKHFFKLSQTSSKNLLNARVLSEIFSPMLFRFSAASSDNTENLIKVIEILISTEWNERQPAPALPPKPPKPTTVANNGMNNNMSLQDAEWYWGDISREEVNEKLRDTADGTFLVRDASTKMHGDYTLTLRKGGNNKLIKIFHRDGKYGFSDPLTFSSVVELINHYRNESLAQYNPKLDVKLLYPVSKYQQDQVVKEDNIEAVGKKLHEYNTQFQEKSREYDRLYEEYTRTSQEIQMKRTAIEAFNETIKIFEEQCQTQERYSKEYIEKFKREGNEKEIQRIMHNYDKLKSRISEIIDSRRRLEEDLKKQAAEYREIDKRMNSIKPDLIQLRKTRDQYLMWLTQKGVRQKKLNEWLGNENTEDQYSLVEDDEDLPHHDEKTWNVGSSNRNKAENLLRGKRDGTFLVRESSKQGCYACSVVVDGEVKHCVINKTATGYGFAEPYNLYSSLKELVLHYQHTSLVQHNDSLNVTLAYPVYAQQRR

PI3Kβ @ 0.3 μM (% Inh) ([1]; 0.3 µM) | BTK @ 0.1 μM (% Inh) [2] [% Inh] | IC50 [2] [µM] | IC50 ([3]; mouse splenocytes) [µM] | ITK @ 0.3 μM (% Inh) ([4]; 0.3 µM) | PI3Kβ @ 0.3 μM (% Inh) [1] [% Inh] | BTK @ 1 μM (% Inh) [2] [% Inh] | ITK @ 0.3 μM (% Inh) [4] [% Inh] | IC50 ([3]; Splenocyte, mouse splenocytes) [µM] | IC50 [1] [µM] | IC50 [4] [µM] | IC50 ([3]; Mus musculus, Splenocyte) [µM] | BTK @ 0.01 μM (% Inh) [2] [% Inh] | SMILES | CD69 @ 100 nM (% Inh) ([3]; mouse splenocytes, 0.1 µM) | CD69 @ 100 nM (% Inh) ([3]; mouse splenocytes)
69.23 | 45.78 | 0.112 | 0.118 ± 0.104 | 0.04 |  |  |  |  |  |  |  |  | Nc1ncnc2c1c(-c1cc(O)cc(F)c1)nn2C1CCc2ccccc2C1 (single isomer, unassigned) [6b, 3-(4-amino-1-(1,2,3,4-tetrahydronaphthalen-2-yl)-1H-pyrazolo[3,4-d]pyrimidin-3-yl)-5-fluorophenol] | 68.73 ± 21.60 (n = 6) % Inh | 
 | 54.54 | 0.0843 |  |  | 20.68 | 89.54 | −6.84 |  |  |  |  |  | COc1ccc(-c2nn(C3Cc4ccccc4C3)c3ncnc(N)c23)cc1O [Compound No. 68, 5-[4-amino-1-(2,3-dihydro-1H-inden-2-yl)-1H-pyrazolo[3,4-d]pyrimidin-3-yl]-2-methoxyphenol] |  | 44.83 ± 29.77 (n = 6) % Inh
 | 63.18 | 0.134 |  |  | 60.98 | 93.26 | 5.31 | 0.117 ± 0.0836 |  |  |  |  | Nc1ncnc2c1c(-c1cc(O)cc(F)c1)nn2C1Cc2ccc(F)cc2C1 (centres unmarked) [compound 57, 3-[4-amino-1-(5-fluoro-2,3-dihydro-1H-inden-2-yl)-1H-pyrazolo[3,4-d]pyrimidin-3-yl]-5-fluorophenol] |  | 64.26 ± 21.20 (n = 6) % Inh
 |  | 0.0087 |  |  | 49.12 |  | −5.41 |  |  |  |  |  | Nc1ncnc2c1c(-c1cc(O)c(Cl)c(Cl)c1)cn2C1Cc2ccccc2C1 [Compound No. 107, 5-[4-amino-7-(2,3-dihydro-1H-inden-2-yl)-7H-pyrrolo[2,3-d]pyrimidin-5-yl]-2,3-dichlorophenol] |  | −0.20 ± 16.10 (n = 3) % Inh
 | 84.11 | 0.0104 |  |  |  |  |  |  | 1.12 | > 100 |  |  | Nc1ncnc2c1c(-c1ccc(F)c(O)c1)nn2C1CCc2ccccc2C1 (single isomer, unassigned) [Compound No. 26a, 5-(4-amino-1-(1,2,3,4-tetrahydronaphthalen-2-yl)-1H-pyrazolo[3,4-d]pyrimidin-3-yl)-2-fluorophenol] | 16.07 ± 15.99 (n = 5) % Inh | 
 | 73.83 | 0.0269 |  |  | 73.05 | 94.81 | 2.1 |  |  |  | 0.106 ± 0.0508 |  | Nc1ncnc2c1c(-c1cc(O)c(F)c(F)c1)nn2C1Cc2ccccc2C1 [Compound No. 81, 5-[4-amino-1-(2,3-dihydro-1H-inden-2-yl)-1H-pyrazolo[3,4-d]pyrimidin-3-yl]-2,3-difluorophenol] |  | 88.08 ± 32.59 (n = 5) % Inh
 | 90.90 | 0.007 |  |  |  |  |  |  | 0.418 | > 100 |  |  | Nc1ncnc2c1c(-c1ccc(F)c(O)c1)nn2C1Cc2ccccc2C1 [Compound No. 29, 5-(4-amino-1-indan-2-yl-pyrazolo[3,4-d]pyrimidin-3-yl)-2-fluoro-phenol] |  | 17.76 ± 20.69 (n = 9) % Inh
 | 75.02 | 0.0571 |  |  | 19.09 | 96.31 | 6.31 |  |  |  |  |  | COc1cc(-c2nn(C3Cc4ccccc4C3)c3ncnc(N)c23)ccc1C [Compound No. 49, 1-(2,3-dihydro-1H-inden-2-yl)-3-(3-methoxy-4-methylphenyl)-1H-pyrazolo[3,4-d]pyrimidin-4-amine] |  | 16.42 ± 20.45 (n = 9) % Inh
 | 96.32 | 0.0008 |  |  | 47.09 |  | 108.85 |  |  |  |  | 77.86 | Nc1ncnc2c1c(-c1ccc(Cl)c(O)c1)cn2C1Cc2ccccc2C1 [Compound No. 93, 5-[4-amino-7-(2,3-dihydro-1H-inden-2-yl)-7H-pyrrolo[2,3-d]pyrimidin-5-yl]-2-chlorophenol] |  | −19.68 ± 39.78 (n = 5) % Inh
 | 92.01 | 0.0042 |  |  | 50.79 | 98.56 | 3.68 |  |  |  |  |  | Nc1ncnc2c1c(-c1cc(O)cc(F)c1)cn2C1Cc2ccccc2C1 [Compound No. 63, 3-[4-amino-7-(2,3-dihydro-1H-inden-2-yl)-7H-pyrrolo[2,3-d]pyrimidin-5-yl]-5-fluorophenol] |  | 21.07 ± 27.71 (n = 9) % Inh
 | 82.1 | 0.0209 |  |  |  |  |  |  | 0.787 | 51.6 |  |  | Nc1ncnc2c1c(-c1ccc(F)c(O)c1)nn2C1CCc2ccccc2C1 (single isomer, unassigned) [Compound No. 26b, 5-(4-amino-1-(1,2,3,4-tetrahydronaphthalen-2-yl)-1H-pyrazolo[3,4-d]pyrimidin-3-yl)-2-fluorophenol] | 11.62 ± 20.93 (n = 5) % Inh | 
 | 52.22 | 0.078 |  |  | 39.8 |  | 112.3 |  |  |  |  | 17.5 | Nc1ncnc2c1c(-c1ccc(Cl)c(O)c1F)nn2C1Cc2ccccc2C1 [Compound No. 100, 3-[4-amino-1-(2,3-dihydro-1H-inden-2-yl)-1H-pyrazolo[3,4-d]pyrimidin-3-yl]-6-chloro-2-fluorophenol] |  | 27.39 ± 22.07 (n = 5) % Inh
 | 38.26 | 0.258 |  |  | 34.21 |  | −3.29 |  |  |  |  |  | Nc1ncnc2c1c(-c1ccc3cc[nH]c3c1)nn2C1CCc2ccccc2C1 (racemic) [compound 18, 3-(1H-indol-6-yl)-1-(1,2,3,4-tetrahydronaphthalen-2-yl)-1H-pyrazolo[3,4-d]pyrimidin-4-amine] |  | 13.22 ± 11.84 (n = 5) % Inh
